Values joined by “and” are separate entries in the source; they are usually repeats but may differ in a detail not shown here. Equal values may be shown once. Records with an inconclusive call do not appear. Numbered stars: 1 amine (or outer) side, 2 acyl side, 3 side chain; on linkers, the order of the positions; unused ones are H or OH. Bridge positions count the residues as written; N and C are the ends. Square brackets hold non-standard residues; d marks the D form. Peptide text beside a SMILES is read from it. I, II: the chains in the order shown. * marks the point of attachment. ξ: configuration not given here. Quinaldoyl(3-OH,6-OMe) = COc1ccc2nc(C(=O)*)c(O)cc2c1; X2 = CC(=O)OC1CC=NN([*:1])C1C(=O)[*:2]; ξNMeVal(3-OH) = CNC(C(=O)O)C(C)(C)O; X3 = O=C(C1CCCNN1[*:1])[*:2]; Sar = CNCC(=O)O
Test system: BDF1 mice, M5076 sarcoma s.c., survival/tumor T/C
Experiment: NCI In Vivo Anticancer Drug Screen. Data for tumor model Sarcoma M5076 (subcutaneous) in B6D2F1 (BDF1) mice
Experimental: The antitumor activity of compounds was measured in mice bearing transplantable tumors. Survival or tumor size were measured and the results are expressed as the measurement made in the treated group (T) divided by the measurement made in the vehicle treated control group (C). The tumor model used in this assay is Sarcoma M5076 (subcutaneous) in B6D2F1 (BDF1) mice

[1] = endpoint: median survival time, dose: 50.0 mg/kg/injection, schedule: Q01DX009 (ip), vehicle: saline with Tween-80, higher = longer survival
[2] = endpoint: median survival time, dose: 100.0 mg/kg/injection, schedule: Q01DX009 (ip), vehicle: saline with Tween-80, higher = longer survival
[3] = endpoint: median survival time, dose: 200.0 mg/kg/injection, schedule: Q01DX009 (ip), vehicle: saline with Tween-80, higher = longer survival
[4] = endpoint: median tumor weight (est.), dose: 50.0 mg/kg/injection, schedule: Q01DX009 (ip), vehicle: saline with Tween-80, higher = larger tumour
[5] = endpoint: median tumor weight (est.), dose: 100.0 mg/kg/injection, schedule: Q01DX009 (ip), vehicle: saline with Tween-80, higher = larger tumour
[6] = endpoint: median survival time, dose: 25.0 mg/kg/injection, schedule: Q04DX003 (ip), vehicle: saline with Tween-80, higher = longer survival
[7] = endpoint: median survival time, dose: 50.0 mg/kg/injection, schedule: Q04DX003 (ip), vehicle: saline with Tween-80, higher = longer survival
[8] = endpoint: median survival time, dose: 100.0 mg/kg/injection, schedule: Q04DX003 (ip), vehicle: saline with Tween-80, higher = longer survival

O=C1/C(=C/c2cccc([N+](=O)[O-])c2)SC(=S)N1C1CC1
T/C [1]: 94 % of control
T/C [2]: 94 % of control
T/C [3]: 89 % of control
T/C [4]: 100 % of control
T/C [5]: 97 % of control

COc1cc(/C=C2\SC(=S)N(c3ccc(Cl)c(Cl)c3)C2=O)ccc1O
T/C [1]: 90 % of control
T/C [2]: 94 % of control
T/C [4]: 105 % of control
T/C [5]: 117 % of control

CS(=O)(=O)c1ncc(Br)cn1
T/C [6]: 100 % of control
T/C [7]: 84 % of control
T/C [8]: 99 % of control
T/C (endpoint: median survival time, dose: 200.0 mg/kg/injection, schedule: Q04DX003 (ip), vehicle: saline with Tween-80, higher = longer survival): 91 % of control

O=P1(N(CCCl)CCCl)NCCCO1 (stereo unspecified)
T/C (endpoint: median survival time, dose: 6.25 mg/kg/injection, schedule: Q04DX006 (ip), vehicle: saline, higher = longer survival): 100 % of control
T/C (endpoint: median survival time, dose: 12.5 mg/kg/injection, schedule: Q02DX033 (ip), vehicle: saline, higher = longer survival): 121 % of control
T/C (endpoint: median survival time, dose: 12.5 mg/kg/injection, schedule: Q04DX006 (ip), vehicle: saline, higher = longer survival): 108 % of control
T/C (endpoint: median survival time, dose: 25.0 mg/kg/injection, schedule: Q02DX033 (ip), vehicle: saline, higher = longer survival): 214 % of control
T/C (endpoint: median survival time, dose: 25.0 mg/kg/injection, schedule: Q04DX006 (ip), vehicle: saline, higher = longer survival): 124 % of control
T/C (endpoint: median survival time, dose: 50.0 mg/kg/injection, schedule: Q04DX006 (ip), vehicle: saline, higher = longer survival): 121 % of control
T/C (endpoint: median survival time, dose: 64.8 mg/kg/injection, schedule: Q01DX001 (ip), vehicle: saline, higher = longer survival): 101 % of control
T/C (endpoint: median survival time, dose: 210.0 mg/kg/injection, schedule: Q01DX001 (ip), vehicle: saline, higher = longer survival): 155 % of control and 157 % of control

NC(=O)c1csc(C2OC(CO)C(O)C2O)n1 (stereo unspecified)
T/C (endpoint: median survival time, dose: 9.38 mg/kg/injection, schedule: Q01DX009 (ip), vehicle: saline, higher = longer survival): 103 % of control
T/C (endpoint: median survival time, dose: 18.8 mg/kg/injection, schedule: Q01DX009 (ip), vehicle: saline, higher = longer survival): 97 % of control
T/C (endpoint: median survival time, dose: 37.5 mg/kg/injection, schedule: Q01DX009 (ip), vehicle: saline, higher = longer survival): 93 % of control
T/C (endpoint: median survival time, dose: 75.0 mg/kg/injection, schedule: Q01DX009 (ip), vehicle: saline, higher = longer survival): 94 % of control
T/C (endpoint: median survival time, dose: 150.0 mg/kg/injection, schedule: Q01DX009 (ip), vehicle: saline, higher = longer survival): 97 % of control
T/C (endpoint: median survival time, dose: 300.0 mg/kg/injection, schedule: Q01DX009 (ip), vehicle: saline, higher = longer survival): 97 % of control
T/C (endpoint: median survival time, dose: 600.0 mg/kg/injection, schedule: Q01DX009 (ip), vehicle: saline, higher = longer survival): 101 % of control
T/C (endpoint: median tumor weight (est.), dose: 9.38 mg/kg/injection, schedule: Q01DX009 (ip), vehicle: saline, higher = larger tumour): 95 % of control
T/C (endpoint: median tumor weight (est.), dose: 18.8 mg/kg/injection, schedule: Q01DX009 (ip), vehicle: saline, higher = larger tumour): 95 % of control
T/C (endpoint: median tumor weight (est.), dose: 75.0 mg/kg/injection, schedule: Q01DX009 (ip), vehicle: saline, higher = larger tumour): 100 % of control
T/C (endpoint: median tumor weight (est.), dose: 150.0 mg/kg/injection, schedule: Q01DX009 (ip), vehicle: saline, higher = larger tumour): 104 % of control
T/C (endpoint: median tumor weight (est.), dose: 300.0 mg/kg/injection, schedule: Q01DX009 (ip), vehicle: saline, higher = larger tumour): 91 % of control

NC1=NC(O)C=C1 (stereo unspecified)
T/C (endpoint: median survival time, dose: 5.0 mg/kg/injection, schedule: Q01DX009 (ip), vehicle: saline, higher = longer survival): 103 % of control
T/C (endpoint: median survival time, dose: 10.0 mg/kg/injection, schedule: Q01DX009 (ip), vehicle: saline, higher = longer survival): 96 % of control
T/C (endpoint: median survival time, dose: 20.0 mg/kg/injection, schedule: Q01DX009 (ip), vehicle: saline, higher = longer survival): 94 % of control
T/C (endpoint: median survival time, dose: 40.0 mg/kg/injection, schedule: Q01DX009 (ip), vehicle: saline, higher = longer survival): 96 % of control
T/C (endpoint: median survival time, dose: 80.0 mg/kg/injection, schedule: Q01DX009 (ip), vehicle: saline, higher = longer survival): 103 % of control
T/C (endpoint: median tumor weight (est.), dose: 5.0 mg/kg/injection, schedule: Q01DX009 (ip), vehicle: saline, higher = larger tumour): 115 % of control
T/C (endpoint: median tumor weight (est.), dose: 10.0 mg/kg/injection, schedule: Q01DX009 (ip), vehicle: saline, higher = larger tumour): 63 % of control
T/C (endpoint: median tumor weight (est.), dose: 20.0 mg/kg/injection, schedule: Q01DX009 (ip), vehicle: saline, higher = larger tumour): 169 % of control
T/C (endpoint: median tumor weight (est.), dose: 40.0 mg/kg/injection, schedule: Q01DX009 (ip), vehicle: saline, higher = larger tumour): 96 % of control
T/C (endpoint: median tumor weight (est.), dose: 80.0 mg/kg/injection, schedule: Q01DX009 (ip), vehicle: saline, higher = larger tumour): 68 % of control

C[CH2][Ge]1([CH2]C)[CH2]CC2(CCN(CCCN(C)C)C2)C[CH2]1
T/C (endpoint: mean tumor weight, dose: 12.5 mg/kg/injection, schedule: Q02DX011 (ip), vehicle: saline, higher = larger tumour): 110 % of control
T/C (endpoint: mean tumor weight, dose: 25.0 mg/kg/injection, schedule: Q02DX011 (ip), vehicle: saline, higher = larger tumour): 79 % of control and 91 % of control
T/C (endpoint: mean tumor weight, dose: 50.0 mg/kg/injection, schedule: Q02DX011 (ip), vehicle: saline, higher = larger tumour): 107 % of control and 82 % of control
T/C (endpoint: median tumor weight (est.), dose: 12.5 mg/kg/injection, schedule: Q02DX011 (ip), vehicle: saline, higher = larger tumour): 94 % of control
T/C (endpoint: median tumor weight (est.), dose: 25.0 mg/kg/injection, schedule: Q02DX011 (ip), vehicle: saline, higher = larger tumour): 74 % of control
T/C (endpoint: median tumor weight (est.), dose: 50.0 mg/kg/injection, schedule: Q02DX011 (ip), vehicle: saline, higher = larger tumour): 74 % of control

C[C@@H](CN1CC(=O)NC(=O)C1)N1CC(=O)NC(=O)C1
T/C (endpoint: median survival time, dose: 32.0 mg/kg/injection, schedule: Q01DX009 (ip), vehicle: saline with Tween-80, higher = longer survival): 119 % of control
T/C (endpoint: median survival time, dose: 64.0 mg/kg/injection, schedule: Q01DX009 (ip), vehicle: saline with Tween-80, higher = longer survival): 108 % of control and 111 % of control
T/C (endpoint: median survival time, dose: 128.0 mg/kg/injection, schedule: Q01DX009 (ip), vehicle: saline with Tween-80, higher = longer survival): 115 % of control and 119 % of control
T/C (endpoint: median tumor weight (est.), dose: 32.0 mg/kg/injection, schedule: Q01DX009 (ip), vehicle: saline with Tween-80, higher = larger tumour): 68 % of control
T/C (endpoint: median tumor weight (est.), dose: 64.0 mg/kg/injection, schedule: Q01DX009 (ip), vehicle: saline with Tween-80, higher = larger tumour): 36 % of control and 58 % of control
T/C (endpoint: median tumor weight (est.), dose: 128.0 mg/kg/injection, schedule: Q01DX009 (ip), vehicle: saline with Tween-80, higher = larger tumour): 18 % of control and 37 % of control
T/C (endpoint: median tumor weight (est.), dose: 256.0 mg/kg/injection, schedule: Q01DX009 (ip), vehicle: saline with Tween-80, higher = larger tumour): 14 % of control

O=C1c2ccccc2C(=O)c2c(NCCNCCO)ccc(O)c21
T/C (endpoint: median survival time, dose: 12.5 mg/kg/injection, schedule: Q04DX003 (ip), vehicle: saline with Tween-80, higher = longer survival): 90 % of control
T/C [6]: 116 % of control
T/C [7]: 103 % of control
T/C [8]: 104 % of control and 107 % of control
T/C (endpoint: median survival time, dose: 150.0 mg/kg/injection, schedule: Q04DX003 (ip), vehicle: saline with Tween-80, higher = longer survival): 122 % of control

COc1ccc2nc(C(=O)NC3COC(=O)C(C(C)(C)O)N(C)C(=O)CN(C)C(=O)CNC(=O)C4CCCNN4C(=O)C(NC(=O)c4nc5ccc(OC)cc5cc4O)COC(=O)C(C(C)(C)O)N(C)C(=O)CN(C)C(=O)CNC(=O)C4C(OC(C)=O)CC=NN4C3=O)c(O)cc2c1 (stereo unspecified) (I: {Quinaldoyl(3-OH,6-OMe)}-S[X2]G[Sar][ξNMeVal(3-OH)] / II: {Quinaldoyl(3-OH,6-OMe)}-S[X3]G[Sar][ξNMeVal(3-OH)]; ester I:1-II:C, I:C-II:1; configuration not given here)
T/C (endpoint: median survival time, dose: 5.0 micrograms/kg/injection, schedule: Q01DX009 (ip), vehicle: Klucel (hydroxypropylcellulose) (HPC), higher = longer survival): 97 % of control
T/C (endpoint: median survival time, dose: 10.0 micrograms/kg/injection, schedule: Q01DX009 (ip), vehicle: Klucel (hydroxypropylcellulose) (HPC), higher = longer survival): 86 % of control
T/C (endpoint: median survival time, dose: 20.0 micrograms/kg/injection, schedule: Q01DX009 (ip), vehicle: Klucel (hydroxypropylcellulose) (HPC), higher = longer survival): 95 % of control
T/C (endpoint: median survival time, dose: 40.0 micrograms/kg/injection, schedule: Q01DX009 (ip), vehicle: Klucel (hydroxypropylcellulose) (HPC), higher = longer survival): 94 % of control
T/C (endpoint: median tumor weight (est.), dose: 5.0 micrograms/kg/injection, schedule: Q01DX009 (ip), vehicle: DMSO, higher = larger tumour): 90 % of control
T/C (endpoint: median tumor weight (est.), dose: 10.0 micrograms/kg/injection, schedule: Q01DX009 (ip), vehicle: DMSO, higher = larger tumour): 107 % of control
T/C (endpoint: median tumor weight (est.), dose: 20.0 micrograms/kg/injection, schedule: Q01DX009 (ip), vehicle: DMSO, higher = larger tumour): 117 % of control

CCOC(=O)CCC1(C(=O)OC)C(=O)CCCCCCCC1C(=O)OC (stereo unspecified)
T/C [1]: 100 % of control
T/C [2]: 100 % of control
T/C [3]: 115 % of control

S=c1nc[nH]c2nc[nH]c12
T/C (endpoint: median survival time, dose: 12.5 mg/kg/injection, schedule: Q04DX006 (ip), vehicle: saline with Tween-80, higher = longer survival): 99 % of control
T/C (endpoint: median survival time, dose: 25.0 mg/kg/injection, schedule: Q04DX006 (ip), vehicle: saline with Tween-80, higher = longer survival): 111 % of control
T/C (endpoint: median survival time, dose: 50.0 mg/kg/injection, schedule: Q02DX033 (ip), vehicle: saline with Tween-80, higher = longer survival): 107 % of control
T/C (endpoint: median survival time, dose: 50.0 mg/kg/injection, schedule: Q04DX006 (ip), vehicle: saline with Tween-80, higher = longer survival): 105 % of control
T/C (endpoint: median survival time, dose: 100.0 mg/kg/injection, schedule: Q04DX006 (ip), vehicle: saline with Tween-80, higher = longer survival): 111 % of control

— PubChem BioAssay AID288 (DTP/NCI, 2004)
